The subject of assay [1] is aorta rings isolated from rats. Nature of the assay: Isolated organ technique: relaxation of rat aorta rings pre-contracted in hyperpotassium solution (80 mM KCl). In kind it is cell-based. Particulars: for EC50: Rattus norvegicus. The protocol: The experiments are carried out on the thoracic aorta of male rats of Wistar strain weighing 200 to 250 g, 7 to 8 weeks of age. The rat is stunned then placed in the supine position. After thoracotomy, the segment of the aorta comprised between the diaphragm and the right aortic arch is excised. The portion of aorta is immediately placed in a buffered physiological solution of modified Krebs type. The aorta is sectioned into 5 mm rings.
For certain preparations, the endothelium is removed mechanically using a needle surrounded by a wire which is turned in the aorta ring.
The aorta rings, after dissection, are suspended between two hooks one of which is fixed and the other is mobile. This mounting is placed in a chamber of Plexiglas (Emka Technologies), thermostatically-controlled at 37° C., containing 5 ml of physiological solution oxygenated by a gas mixture (95% O2-5% CO2). The thermostatically-controlled enclosure is supplied by a water bath. The mobile hook is suspended with a sensor connected to the interface (electromechanical transducer). This interface is connected on the one hand to an amplifier (amplification of the signal) and on the other hand to a computer (display and analysis of the signal). The IOX 1.565 program enables the processing and display of the signals on the computer screen. The Data Analyst and Prism 3.0 programs allow analysis of the results.
After mounting the aorta rings in the experimental device, these are stretched at a basal tension of 2.5 g. This tension corresponds to the optimum point of their tension/length relationship. Waiting for a stable state in the reference physiological medium is carried out over a period of approximately 1 hour with washing every 20 minutes. Following this equilibration period, the different experiments are carried out.
In order to be free of the relaxation/contraction mechanisms due to the endothelium, certain preparations are made devoid of the latter by mechanical destruction. In order to ensure effective destruction of the endothelium, a cholinergic test (ACh 10^−4 M) is carried out at the end of the first period of equilibration, on preparations pre-contracted by a hyperpotassium solution (80 mM of KCl).
Following this test, the preparations are subjected to several successive washings in order to re-establish a stable state. Once a stable state is reached, the different experiments can be carried out. The contractures due to the hyperpotassium solutions are obtained by the total replacement of the reference physiological solution by the hyperpotassium solution. The administration of the pharmacological substances is carried out in a cumulative fashion and directly in the isolated organ chambers whilst paying attention that the additional volume is not too high. The application of each new concentration only occurs after stabilization. In order to be aware of the reactivity state of the preparation at the end of manipulation, a hyperpotassium or noradrenergic test is carried out. If the preparation reacts in the direction of a contracture, the test is valid.
The composition of the reference physiological solution is a solution of modified Krebs type: NaCl: 120 mM; KCl: 4.7 mM; CaCl2: 2.5 mM; MgCl2: 1.2 mM; NaH2PO4: 1.2 mM; NaHCO3: 15 mM; Hepes: 10 mM; Glucose: 11 mM; pH=7.4. Hyperpotassium solutions containing different concentrations of KCl have been prepared according to the same principle. These solutions are used to provoke a contracture of the aorta ring by depolarisation of the smooth muscle cells. The hyperpotassium solution mainly used in the experiments contains 80 mM of KCl.

Assay [2] deals with aorta rings with endothelium pre-contracted by arterenol. The assay is described as follows: Isolated organ technique: relaxation of rat aorta rings pre-contracted by arterenol. The format is cell-based. The conditions noted are these: 10 μM, arterenol 10^-4 M, after 2 hours 30 minutes.
Method: The experiments are carried out on the thoracic aorta of male rats of Wistar strain weighing 200 to 250 g, 7 to 8 weeks of age. The rat is stunned then placed in the supine position. After thoracotomy, the segment of the aorta comprised between the diaphragm and the right aortic arch is excised. The portion of aorta is immediately placed in a buffered physiological solution of modified Krebs type. The aorta is sectioned into 5 mm rings. The aorta rings, after dissection, are suspended between two hooks one of which is fixed and the other is mobile. […] The thermostatically-controlled enclosure is supplied by a water bath. The mobile hook is suspended with a sensor connected to the interface (electromechanical transducer). This interface is connected on the one hand to an amplifier (amplification of the signal) and on the other hand to a computer (display and analysis of the signal). […] The Data Analyst and Prism 3.0 programs allow analysis of the results. After mounting the aorta rings in the experimental device, these are stretched at a basal tension of 2.5 g. This tension corresponds to the optimum point of their tension/length relationship. Waiting for a stable state in the reference physiological medium is carried out over a period of approximately 1 hour with washing every 20 minutes. Following this equilibration period, the different experiments are carried out. […]
The subject of assay [3] is aorta rings of Cftr+/+ mice. Nature of the assay: Vasorelaxation of aorta rings contracted by 80 mM K+, Cftr+/+ mice. The format is cell-based, mouse. An excerpt: CFTR is detected at the level of its messenger RNA and at the level of protein in the smooth muscles. As negative control the inventors used musculus skeleti of rat at the level of which neither the messenger nor the protein are present. CFTR is detectable in the smooth muscle by immunoprecipitation and phosphorylation in vitro by the protein kinase A. The pharmacology of CFTR has been studied using iodide efflux in muscle cell freshly dissociated from rat aorta. […] Its inhibition profile is similar to that of epithelial CFTR (sensitivity to glibenclamide and DPC but not to Calixarene). […] Moreover, a greater contraction is observed in the KO animals in response to the constricting agents.
a, graphs showing the vasorelaxation induced by the VIP neuropeptide (Vasoactive Intestinal Polypeptide) of aortas without endothelium of Cftr^+/+ (left) and Cftr^−/− (right) mice. The aorta rings are reversibly contracted by a hyperpotassium solution (solution of 80 mM K^+) then the effect of 300 nM VIP is measured. The absence of endothelium is verified by the addition of acetylcholine (ACh, 10^−5 M).
This effect is absent in Cftr^−/− mice (n=6). Average±SEM*P<0.05, ** P<0.01, *** P<0.001.

SMILES strings stand for the structures. Where “and” joins values, the source holds several entries; their conditions need not be identical. Identical values can stand only once. Like-named read-outs stand apart in the source and are kept apart here.

As for `Oc1cc2cccc[n+]2c2c(Cl)cccc12.[Cl-]` [MPB-07, 6-hydroxy-10-chlorobenzo[c]quinolizinium chloride], the EC50 is 132.4 ± 0.02 µM in assay [1] (aorta rings with endothelium, 80 mM KCl, n=14, read-out: EC50, relaxation); 92.9 ± 0.02 µM in assay [1] (aorta rings without endothelium, 80 mM KCl, n=7, read-out: EC50, relaxation); 133 µM in assay [1] (comparison of FIG. 6, read-out: EC50, dose/response curves); 134 µM in assay [1] (summary statement of results, read-out: EC50, vasorelaxant effect); 51.8 ± 0.008 µM in assay [1] (with endothelium + L-NAME 10^-4 M, n=8, read-out: EC50, relaxation); 55.1 ± 0.2 µM in assay [1] (without endothelium + L-NAME, n=7, read-out: EC50, relaxation). Further, the “reversibility of the relaxing effect” value in assay [1] (single dose 135 μM, with endothelium, after washing) is “reversible”. The relaxation in assay [1] (with endothelium + L-NAME, 40 μM) was 33±6.15%; in assay [1] (with endothelium + L-NAME, 160 μM), 98±1.3%; in assay [1] (with endothelium, 80 μM), 24±1.6%; in assay [1] (with endothelium, 160 μM), 64%; in assay [1] (with endothelium, 250 μM) it was 88%; in assay [1] (with endothelium, 500 μM), 96±1.75% and 100%. For the same compound, the relaxation in assay [1] (without endothelium, 80 μM) was determined as 37±5.6%; in assay [1] (without endothelium, 250 μM), 99±1%; in assay [2], 90±9%. Besides, the “effect on pre-contracted aorta” value in assay [3] (Cftr+/+ rat and mouse tissues) is reported as “relaxation of the pre-contracted aorta”. In assay [3] (Mus musculus, aorta rings contracted by 80 mM K+, n=6), the IC50 stood at 37 ± 1.17 µM.

Broadly, the IC50 is the point on the concentration scale where inhibition reaches its midpoint. High values mean lower potency, low ones higher potency.

(Values after patent US7897610B2, “Use of benzo[c]quinolizinium derivatives for the treatment of diseases that are linked to smooth muscle cell constriction” (Centre National de la Recherche Scientifique, priority 2002, dated 2011).)
